# Laboratory results reported in patent publication US20100120858A1, “Piperidine Derivatives” (Pfizer Inc., priority 2006, published 2010).
# Counter-ions that a name gives are not always drawn.
# Experiments:
# [1] = biological target: human norepinephrine transporter (Homo sapiens, UniProt P23975); experiment: Human norepinephrine (hNET) receptor binding, [125I]-RTI-55; details: membranes of HEK-293 cells transfected with human norepinephrine transporter cDNA; 50 pM [125I]-RTI-55; IC50 converted by Cheng-Prusoff
# Sequence of human norepinephrine transporter (P23975 whole entry): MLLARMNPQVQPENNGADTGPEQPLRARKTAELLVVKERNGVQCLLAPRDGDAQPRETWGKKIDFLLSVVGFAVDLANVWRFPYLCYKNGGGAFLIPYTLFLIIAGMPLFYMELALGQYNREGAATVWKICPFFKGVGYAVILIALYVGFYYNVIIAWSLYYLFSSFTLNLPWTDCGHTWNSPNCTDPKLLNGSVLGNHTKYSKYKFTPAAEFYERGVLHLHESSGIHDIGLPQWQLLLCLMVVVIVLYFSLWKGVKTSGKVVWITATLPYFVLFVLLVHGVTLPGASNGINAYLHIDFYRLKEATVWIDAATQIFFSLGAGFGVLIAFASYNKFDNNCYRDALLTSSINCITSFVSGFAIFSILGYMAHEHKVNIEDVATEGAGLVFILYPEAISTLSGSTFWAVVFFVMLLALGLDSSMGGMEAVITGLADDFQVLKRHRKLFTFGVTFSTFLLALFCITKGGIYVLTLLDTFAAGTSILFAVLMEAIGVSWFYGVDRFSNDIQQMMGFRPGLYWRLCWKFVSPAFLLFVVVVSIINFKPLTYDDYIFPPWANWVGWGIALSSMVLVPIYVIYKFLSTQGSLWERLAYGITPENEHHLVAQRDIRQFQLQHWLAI
# Experimental: Cell pastes of human embryonic kidney 293 (HEK-293) cells transfected with a human norepinephrine transporter cDNA were prepared. The cell pastes were resuspended in 400 to 700 mL of Krebs-N-2-hydroxyethylpiperazine-N′-2-ethanesulfonic acid (HEPES) assay buffer (25 mM HEPES, 122 mM NaCl, 3 mM KCl, 1.2 mM MgSO4, 1.3 mM CaCl2, and 11 mM glucose, pH 7.4) with a Polytron homogenizer at setting 7 for 30 seconds. Aliquots of membranes (5 mg/mL protein) were stored in liquid nitrogen until used.
# The binding assay was set up in Beckman deep-well polypropylene plates with a total volume of 250 μL containing: test compound (concentration of 10^−5M to 10^−12M), cell membranes, and 50 pM [^125I]-RTI-55 ([^125I]-3 beta-(4-iodophenyl)tropan-2 beta-carboxylic acid methyl ester) (Perkin Elmer, NEX-272; specific activity 2200 Ci/mmol). The reaction was incubated by gentle agitation for 90 minutes at room temperature and was terminated by filtration through Whatman GF/C filter plates using a Brandel 96-well plate harvester. Scintillation fluid (100 μL) was added to each well, and bound [^125I]-RTI-55 was determined using a Wallac Trilux Beta Plate Counter. Test compounds were run in duplicate, and specific binding was defined as the difference between binding in the presence and absence of 10 μM desipramine.
# Excel and GraphPad Prism software were used for data calculation and analysis. IC50 values were converted to Ki values using the Cheng-Prusoff equation. The Ki values (nM) for the hNET are reported below in Table 13.
# [2] = biological target: human serotonin transporter (Homo sapiens, UniProt P31645); experiment: Human serotonin (hSERT) receptor binding, [125I]-RTI-55; details: membranes of HEK-293 cells transfected with human serotonin transporter cDNA, IC50 converted by Cheng-Prusoff
# Sequence of human serotonin transporter (P31645 whole entry): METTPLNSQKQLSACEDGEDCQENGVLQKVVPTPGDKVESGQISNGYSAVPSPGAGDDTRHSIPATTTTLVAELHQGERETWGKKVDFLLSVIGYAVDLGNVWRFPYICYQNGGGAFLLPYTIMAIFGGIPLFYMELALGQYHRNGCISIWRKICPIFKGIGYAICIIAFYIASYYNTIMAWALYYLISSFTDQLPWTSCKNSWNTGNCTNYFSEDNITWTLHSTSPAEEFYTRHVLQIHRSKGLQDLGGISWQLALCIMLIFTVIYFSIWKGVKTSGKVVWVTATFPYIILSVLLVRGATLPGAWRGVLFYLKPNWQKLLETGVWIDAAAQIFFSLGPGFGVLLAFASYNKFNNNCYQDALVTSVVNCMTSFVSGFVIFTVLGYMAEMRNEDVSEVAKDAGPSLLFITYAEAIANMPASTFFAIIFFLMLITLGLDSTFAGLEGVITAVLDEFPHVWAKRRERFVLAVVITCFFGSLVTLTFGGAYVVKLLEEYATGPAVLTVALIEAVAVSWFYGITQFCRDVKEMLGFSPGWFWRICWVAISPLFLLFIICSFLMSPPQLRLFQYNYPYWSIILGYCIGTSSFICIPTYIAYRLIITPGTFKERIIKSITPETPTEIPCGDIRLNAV
# Experimental: Cell pastes of HEK-293 cells transfected with a human serotonin transporter cDNA were prepared. The cell pastes were resuspended in 400 to 700 ml of Krebs-HEPES assay buffer (25 mM HEPES, 122 mM NaCl, 3 mM KCl, 1.2 mM MgSO4, 1.3 mM CaCl2, and 11 mM glucose, pH 7.4) with a Polytron homogenizer at Setting 7 for 30 seconds. Aliquots of membranes (˜2.5 mg/mL protein) were stored in liquid nitrogen until used.
# Assays were set up in FlashPlates pre-coated with 0.1% polyethyleneimine (PEI) in a total volume of 250 μL containing: test compound (concentration 10^−5M to 10^−12M), cell membranes, and […] [^125I]-RTI-55 (Perkin Elmer, NEX-272; specific activity 2200 Ci/mmol). The reaction was incubated and gently agitated for 90 minutes at room temperature, and terminated by removal of assay volume. Plates were covered, and bound [^125I]-RTI-55 was determined using a Wallac Trilux Beta Plate Counter. Test compounds were run in duplicate, and specific binding was defined as the difference between binding in the presence and absence of 10 μM citalopram.
# Excel and GraphPad Prism software were used for data calculation and analysis. IC50 values were converted to Ki values using the Cheng-Prusoff equation.
Compound,Ki [1] [nM],Ki [2] [nM]
"Fc1ccc(Oc2ncccc2OC(c2ccccc2)C2CCCNC2)cc1 (single isomer, unassigned; stereoisomer a) [Example 88, 2-(4-fluoro-phenoxy)-3-[((R or S)-phenyl)-((S)-piperidin-3-yl)-methoxy]-pyridine fumaric acid, stereoisomer A]",4,150
"COc1ccc(F)cc1O[C@@H](c1ccccn1)[C@H]1CCCNC1 [Example 117, 2-[{(R)-5-fluoro-2-methoxy-phenoxy}-(S)-piperidin-3-yl-methyl]-pyridine fumaric acid]",16,4600
"Fc1cc(Cl)ccc1Oc1cc(Cl)ccc1OC[C@H]1CCCNC1 [Example 33, (S)-3-[4-chloro-2-(4-chloro-2-fluoro-phenoxy)-phenoxymethyl]-piperidine fumaric acid]",32,36
"CC[C@H](Oc1cccnc1OCC(C)C)[C@H]1CCCNC1 [Example 87, (S,S)-2-isobutoxy-3-(1-piperidin-3-yl-propoxy)-pyridine fumaric acid]",7,350
"COc1cc(F)ccc1Oc1nc(C)ccc1OC[C@H]1CCCNC1 [Example 28, (S)-2-(4-fluoro-2-methoxy-phenoxy)-6-methyl-3-(piperidin-3-ylmethoxy)-pyridine fumaric acid]",6.1,300
"Clc1ccc(Oc2ncccc2OC[C@H]2CCCNC2)cc1 [Example 55, (S)-2-(4-chloro-phenoxy)-3-(piperidin-3-ylmethoxy)-pyridine fumaric acid]",17,> 10000
"Cc1ccc(OC[C@H]2CCCNC2)c(Oc2cc(C)c(Cl)cc2C(C)C)n1 [Example 16, (S)-2-[4-chloro-5-methyl-2-(1-methyl-ethyl)-phenoxy]-6-methyl-3-(piperidin-3-ylmethoxy)-pyridine fumaric acid]",2600,1700
"COCCOc1ccccc1O[C@@H](C)[C@H]1CCCNC1 [Example 113, (S)-3-{(S)-1-[2-(2-methoxy-ethoxy)-phenoxy]-ethyl}-piperidine hydrochloride]",17,3600
"N#Cc1ccc(Oc2ncccc2OC[C@H]2CCCNC2)cc1 [Example 57, (S)-4-[3-(piperidin-3-ylmethoxy)-pyridin-2-yloxy]-benzonitrile fumaric acid]",58,> 10000
"COc1cc(Cl)ccc1Oc1cc(Cl)ccc1OC[C@H]1CCCNC1 [Example 34, (S)-3-[4-chloro-2-(4-chloro-2-methoxy-phenoxy)-phenoxymethyl]-piperidine fumaric acid]",16,21
"CCOc1ncccc1OC[C@H]1CCCNC1 [Example 79, (S)-2-ethoxy-3-(piperidin-3-ylmethoxy)-pyridine fumaric acid]",108,> 10000
"FC(F)(F)Oc1ccccc1O[C@@H](c1ccccn1)[C@H]1CCCNC1 [Example 116, 2-[(S)-piperidin-3-yl-{(R)-2-trifluoromethoxy-phenoxy}-methyl]-pyridine fumaric acid]",3,3700
"CC[C@H](Oc1cccnc1Oc1ccccc1)[C@H]1CCCNC1 [Example 84, (S,S)-2-phenoxy-3-(1-piperidin-3-yl-propoxy)-pyridine fumaric acid]",3,2030
"COc1cccc(F)c1Oc1nc(C)ccc1OC[C@H]1CCCNC1 [Example 21, (S)-2-(2-fluoro-6-methoxy-phenoxy)-6-methyl-3-(piperidin-3-ylmethoxy)-pyridine fumaric acid]",4.9,72
"Cc1ccc(OC[C@H]2CCCNC2)c(Oc2ccc(Cl)c(Cl)c2)n1 [Example 17, (S)-2-(3,4-dichloro-phenoxy)-6-methyl-3-(piperidin-3-ylmethoxy)-pyridine fumaric acid]",12,63
"CCOc1cccc(F)c1OC[C@H]1CCCNC1 [Example 105, (S)-3-(2-ethoxy-6-fluoro-phenoxymethyl)-piperidine fumaric acid]",32,2800
"Cc1ccc(OC[C@H]2CCCNC2)c(Oc2c(C)cccc2C)n1 [Example 2, (S)-2-(2,6-dimethyl-phenoxy)-6-methyl-3-(piperidin-3-ylmethoxy)-pyridine fumaric acid]",17,≥ 10000
"Cc1ccc(OC[C@H]2CCCNC2)c(Oc2c(Cl)cccc2Cl)n1 [Example 47, (S)-2-(2,6-dichloro-phenoxy)-6-methyl-3-(piperidin-3-ylmethoxy)-pyridine hydrochloride]",10.4,> 9200
"COc1ccc(OC[C@H]2CCCNC2)c(Oc2ccc(Cl)cc2OC)c1 [Example 32, (S)-3-[2-(4-chloro-2-methoxy-phenoxy)-4-methoxy-phenoxymethyl]-piperidine fumaric acid]",46,120
"Fc1ccc(Oc2cccc(F)c2OC[C@H]2CCCNC2)cc1 [Example 96, (S)-3-[2-fluoro-6-(4-fluoro-phenoxy)-phenoxymethyl]-piperidine fumaric acid]",1,530
"COc1cc(C#N)ccc1Oc1ncccc1OC[C@H]1CCCNC1 [Example 62, (S)-3-methoxy-4-[3-(piperidin-3-ylmethoxy)-pyridin-2-yloxy]-benzonitrile fumaric acid]",68,> 10000
"COc1cccc(F)c1O[C@@H](c1ccccn1)[C@H]1CCCNC1 [Example 115, 2-[{(R)-2-fluoro-6-methoxy-phenoxy}-(S)-piperidin-3-yl-methyl]-pyridine fumaric acid]",4,5020
"Cc1ccc(OC[C@H]2CCCNC2)c(Oc2ccc(F)cc2C)n1 [Example 1, (S)-2-(4-fluoro-2-methyl-phenoxy)-6-methyl-3-(piperidin-3-ylmethoxy)-pyridine fumaric acid]",28,580
"c1cnc(OC2CCCCC2)c(OC[C@H]2CCCNC2)c1 [Example 81, (S)-2-cyclohexyloxy-3-(piperidin-3-ylmethoxy)-pyridine fumaric acid]",84,6130
"COc1cc(Cl)ccc1Oc1cc(F)ccc1OC[C@H]1CCCNC1 [Example 36, (S)-3-[2-(4-chloro-2-methoxy-phenoxy)-4-fluoro-phenoxymethyl]-piperidine fumaric acid]",830,110
"COc1ccc(Oc2nc(C)ccc2OC[C@H]2CCCNC2)c(Cl)c1 [Example 26, (S)-2-(2-chloro-4-methoxy-phenoxy)-6-methyl-3-(piperidin-3-ylmethoxy)-pyridine fumaric acid]",18,860
"C[C@H](Oc1ccccc1OC1CCCCC1)[C@H]1CCCNC1 [Example 111, (S)-3-[(S)-1-(2-cyclohexyloxy-phenoxy)-ethyl]-piperidine oxalic acid]",5,1800
"COc1cc(Cl)ccc1Oc1cc(C(F)(F)F)ccc1OC[C@H]1CCCNC1 [Example 35, (S)-3-[2-(4-chloro-2-methoxy-phenoxy)-4-trifluoromethyl-phenoxymethyl]-piperidine fumaric acid]",250,35
"Cc1ccc(OC[C@H]2CCCNC2)c(Oc2c(F)ccc(F)c2F)n1 [Example 49, (S)-6-methyl-3-(piperidin-3-ylmethoxy)-2-(2,3,6-trifluoro-phenoxy)-pyridine hydrochloride]",6.1,25
